Source: patent US20230062911A1, “COMPOSITIONS AND METHODS FOR TREATING, PREVENTING, AND/OR AMELIORATING CHEMOTHERAPY-INDUCED PREMATURE OVARIAN FAILURE (POF)” (Rutgers, The State University of New Jersey, priority 2021, published 2023)
“Also recorded” adds a separate entry of the source.

Tests used:
ovarian follicles = experiment: Follicle counting 6 weeks after treatment of 21-day-old mice; type: in vivo, CD-1 female mice
From the text: Ovarian functions were examined at 6-weeks after treatment in order to evaluate the long-term effect of pharmacological JNK inhibition on female ovarian reserve and other ovary reproductive outcomes.

TAp63α = experiment: Phosphorylation of TAp63α in ovaries, immunostaining and western blot; type: in vivo, CD-1 female mice
Method: (§1) FIG. 2B provides a western blot showing expression of γH2AX and pTAp63α at 3 h and 6 h. The mobility shift of TAp63α indicated phosphorylation (i.e., p-TAp63α), which further indicated cell death initiation through apoptosis.
TAp63a functions to respond to DNA damage that results in its phosphorylation and subsequent oocyte apoptosis initiation in the primordial follicles.
(§2) Next, 5-day-old CD-1 female mice were intraperitoneally injected with 10 mg/kg DOX and 50 mg/kg SP600125, a specific JNK inhibitor.

CD-1 female mice = experiment: Ovarian cyclicity by vaginal smear in 21-day-old treated mice; type: in vivo; details: 21-day-old mice, last 14 days of 6 weeks post treatment
From the text: The transition of various estrous cycle stages of three representative mice (a total of 6-8 mice in each group) are shown for each treatment group, including proestrus, estrus, metestrus, and diestrus.
Ovarian cyclicity was next examined by the method of vaginal smear in the last 14 days of the 6-week post DOX / SP600125 treatment.

primordial follicles = experiment: DOX-induced primordial follicle loss in 5-day-old mice; type: in vivo, CD-1 female mice; details: co-treatment SP600125 50 mg/kg with DOX 10 mg/kg i.p.
Method: as §2

Bax, Puma, Noxa = experiment: qRT-PCR of apoptosis mediators in whole neonatal ovaries; type: in vivo, CD-1 female mice; details: co-treatment with DOX
Method: as §2

[1] = test system: JNK (c-Jun N-terminal kinase) signaling pathway; experiment: RNA sequencing / Gene Ontology analysis of ovaries after DOX; type: in vivo, CD-1 female mice; details: 5-day-old mice, DOX 10 mg/kg i.p., ovaries at 6 hours
Method: Thus, the molecular mechanisms of DOX-induced primordial follicle oocyte apoptosis were investigated as described herein. Fiveday-old CD-1 female mice were intraperitoneally injected with vehicle or 10 mg/kg DOX and ovaries were harvested at 6 hours for RNA sequencing.

γ-H2AX = experiment: Ovarian expression of γ-H2AX (DNA damage marker) after DOX, immunostaining and western blot; type: in vivo
Method: as §1
Expression of γ-H2AX, a well-characterized biomarker of DNA double strand breaks (DDSBs) as well as the major mechanism of DOX’s cytotoxicity on tumorous cells, was detected with administration of DOX.

JNK = experiment: Phosphorylation of JNK in oocytes of primordial follicles, western blot and immunostaining; type: in vivo, CD-1 female mice; details: for activation of JNK in the oocytes of primordial follicles: general statement, no dose given

| numbers of all staged follicles (ovarian follicles; SP600125 alone) | numbers of all stages of ovarian follicles (primordial, primary, secondary, antral) (ovarian follicles; DOX alone) | ovarian cyclicity (estrous cycle stages) (CD-1 female mice; DOX alone) | SMILES | effect on DOX-induced reduction of all stages of follicles (ovarian follicles; co-treatment with DOX) | effect on DOX-induced hyper-phosphorylation of TAp63α (TAp63α; 5-day-old mice, SP600125 50 mg/kg i.p. with DOX 10 mg/kg i.p., western blot) | effect on cisplatin-induced phosphorylation of TAp63α (TAp63α; 5-day-old mouse ovaries, SP600125 50 mg/kg i.p. with cisplatin 20 mg/kg i.p.) | ovarian cyclicity (estrous cycle stages) (CD-1 female mice; DOX / SP600125 co-treatment) | ovarian cyclicity (estrous cycle stages) (CD-1 female mice; SP600125 alone) | effect on DOX-induced primordial follicle loss (primordial follicles) | effect on DOX-induced transcriptional induction of Bax (Bax, Puma, Noxa) | effect on DOX-induced transcriptional induction of Noxa (Bax, Puma, Noxa) | effect on DOX-induced transcriptional induction of Puma (Bax, Puma, Noxa) | JNK signaling pathway by RNA sequencing Gene Ontology analysis [1] | expression of γ-H2AX in ovarian epithelial cells and oocytes (γ-H2AX; DOX 10 mg/kg i.p., 6 h) | time at which increased γ-H2AX expression peaked (γ-H2AX; after DOX treatment, western blot) | phosphorylation of TAp63a in ovaries (TAp63α; 6 h after DOX treatment, western blot) | expression of phospho-p63 in oocytes of primordial follicles (TAp63α; 6 h post DOX treatment, immunostaining) | phosphorylation of JNK in the oocytes of primordial follicles (JNK; 5-day-old mice, DOX 10 mg/kg i.p., 6 h) | activation of JNK in the oocytes of primordial follicles (JNK) |
| --- | --- | --- | --- | --- | --- | --- | --- | --- | --- | --- | --- | --- | --- | --- | --- | --- | --- | --- | --- |
| did not affect | – | – | O=C1c2ccccc2-c2n[nH]c3cccc1c23 [SP600125, dibenzo[cd,g]indazol-6(2H)-one] | effectively prevented the reduction | effectively prevented; also recorded: blocked the phosphorylation | blocked the phosphorylation | comparable ovarian cyclicity to the control group | comparable ovarian cyclicity to the control group | significantly ameliorated; also recorded: prevented DOX-induced primordial follicle loss | prevented the transcriptional induction | prevented the transcriptional induction | prevented the transcriptional induction | – | – | – | – | – | – | – |
| – | remarkably reduced | interfered with mouse ovarian cyclicity | COc1cccc2c1C(=O)c1c(O)c3c(c(O)c1C2=O)C[C@@](O)(C(=O)CO)C[C@@H]3O[C@H]1C[C@H](N)[C@@H](O)[C@H](C)O1 [DOX, (8S,10S)-10-(((2R,4S,5R,6S)-4-amino-5-hydroxy-6-methyltetrahydro-2H-pyran-2-yl)oxy)-6,8,11-trihydroxy-8-(2-hydroxyacetyl)-1-methoxy-7,8,9,10-tetrahydrotetracene-5,12-dione] | – | – | – | – | – | – | – | – | – | significantly changed; also recorded: activated | significantly increased | 6 h | hyper-phosphorylated | significantly induced | selectively increased; also recorded: selective hyper-phosphorylation | selectively activate |
| – | – | – | N.N.[Cl][Pt][Cl] [cisplatin, cis-diammineplatinum (II) dichloride] | – | – | – | – | – | – | – | – | – | – | – | – | – | – | – | selectively activate |
